Experimental data reported in patent publication US6358885B1, “Substituted phenylheterocyclic herbicides” (Mississippi State University, priority 1992, dated 2002).

What was measured:
Assay in all cases: Test B preemergence/postemergence greenhouse plant response rating 0 to 10
sugar beet = type: in vivo, Beta vulgaris; conditions: 0 to 10 scale
Outline: (§1)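 Test chemicals were sprayed onto freshly planted seed and, concurrently, onto young plants between the one and four leaf stage. After a twelve- to sixteen-day greenhouse period, each species was visually compared with untreated controls.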

bedstraw = type: in vivo, Galium aparine; conditions: for Plant response rating, Bedstraw: 0 to 10 scale
Outline: as §1

cocklebur = type: in vivo, Xanthium pensylvanicum; conditions: for Plant response rating, Cocklebur: 0 to 10 scale
Outline: as §1

barley = type: in vivo, Hordeum vulgare; conditions: for Plant response rating, Barley: 0 to 10 scale
Outline: as §1

soybean = type: in vivo, Glycine max; conditions: 0 to 10 scale
Outline: as §1

morningglory = type: in vivo, Ipomoea hederacea; conditions: 0 to 10 scale
Outline: as §1

velvetleaf = type: in vivo, Abutilon theophrasti; conditions: 0 to 10 scale
Outline: as §1

sorghum = type: in vivo, Sorghum bicolor; conditions: 0 to 10 scale
Outline: as §1

chickweed = type: in vivo, Stellaria media; conditions: for Plant response rating, Chickweed: 0 to 10 scale
Outline: as §1

wild buckwheat = type: in vivo, Polygonum convolvulus; conditions: 0 to 10 scale
Outline: as §1

Structure (SMILES)	Plant response rating, Sugar beet (sugar beet; POSTEMERGENCE, Rate 50 g/ha)	Plant response rating, Sugar beet (sugar beet; POSTEMERGENCE, Rate 200 g/ha)	Plant response rating, Sugar beet (sugar beet; PREEMERGENCE, Rate 50 g/ha)	Plant response rating, Sugar beet (sugar beet; Rate 200 g/ha, PREEMERGENCE)	Plant response rating (0 to 10 scale), Bedstraw (bedstraw; POSTEMERGENCE, Rate 50 g/ha)	Plant response rating, Bedstraw (bedstraw; POSTEMERGENCE, Rate 200 g/ha)	Plant response rating, Bedstraw (bedstraw; PREEMERGENCE, Rate 50 g/ha)	Plant response rating, Bedstraw (bedstraw; Rate 200 g/ha, PREEMERGENCE)	Plant response rating (0 to 10 scale), Cocklebur (cocklebur; POSTEMERGENCE, Rate 50 g/ha)	Plant response rating, Cocklebur (cocklebur; POSTEMERGENCE, Rate 200 g/ha)	Plant response rating, Cocklebur (cocklebur; PREEMERGENCE, Rate 50 g/ha)	Plant response rating, Cocklebur (cocklebur; Rate 200 g/ha, PREEMERGENCE)	Plant response rating (0 to 10 scale), Barley (barley; POSTEMERGENCE, Rate 50 g/ha)	Plant response rating, Barley (barley; POSTEMERGENCE, Rate 200 g/ha)	Plant response rating, Barley (barley; PREEMERGENCE, Rate 50 g/ha)	Plant response rating, Barley (barley; Rate 200 g/ha, PREEMERGENCE)	Plant response rating, Soybean (soybean; POSTEMERGENCE, Rate 50 g/ha)	Plant response rating, Soybean (soybean; POSTEMERGENCE, Rate 200 g/ha)	Plant response rating, Soybean (soybean; PREEMERGENCE, Rate 50 g/ha)	Plant response rating, Soybean (soybean; Rate 200 g/ha, PREEMERGENCE)	further results
Clc1ccc(-c2nc3n(c2Cl)CCC=C3)c(Cl)c1 [Compound 1]	8	10	0	0	3	3	0	0	4	4	0	0	3	3	0	0	4	4	0	0	Plant response rating, Morningglory (morningglory; POSTEMERGENCE, Rate 50 g/ha): 6; Plant response rating, Morningglory (morningglory; POSTEMERGENCE, Rate 200 g/ha): 7; Plant response rating, Morningglory (morningglory; PREEMERGENCE, Rate 50 g/ha): 0; Plant response rating, Morningglory (morningglory; Rate 200 g/ha, PREEMERGENCE): 0; Plant response rating, Velvetleaf (velvetleaf; POSTEMERGENCE, Rate 50 g/ha): 3; Plant response rating, Velvetleaf (velvetleaf; POSTEMERGENCE, Rate 200 g/ha): 8; Plant response rating, Velvetleaf (velvetleaf; PREEMERGENCE, Rate 50 g/ha): 0; Plant response rating, Velvetleaf (velvetleaf; Rate 200 g/ha, PREEMERGENCE): 0; Plant response rating, Sorghum (sorghum; POSTEMERGENCE, Rate 50 g/ha): 4; Plant response rating, Sorghum (sorghum; POSTEMERGENCE, Rate 200 g/ha): 4; Plant response rating, Sorghum (sorghum; PREEMERGENCE, Rate 50 g/ha): 0; Plant response rating, Sorghum (sorghum; Rate 200 g/ha, PREEMERGENCE): 0; Plant response rating (0 to 10 scale), Chickweed (chickweed; POSTEMERGENCE, Rate 50 g/ha): 0; Plant response rating, Chickweed (chickweed; POSTEMERGENCE, Rate 200 g/ha): 2; Plant response rating, Chickweed (chickweed; PREEMERGENCE, Rate 50 g/ha): 0; Plant response rating, Chickweed (chickweed; Rate 200 g/ha, PREEMERGENCE): 0; Plant response rating, Wild buckwheat (wild buckwheat; POSTEMERGENCE, Rate 50 g/ha): 5; Plant response rating, Wild buckwheat (wild buckwheat; POSTEMERGENCE, Rate 200 g/ha): 9; Plant response rating, Wild buckwheat (wild buckwheat; Rate 200 g/ha, PREEMERGENCE): 0
CCS(=O)(=O)Oc1cc(-c2nn3c(c2Cl)CCCC3)c(F)cc1Cl [Compound 25]	10	10	7	10	9	9	5	10	7	8	0	1	4	5	0	0	8	4	0	0	Plant response rating, Morningglory (morningglory; POSTEMERGENCE, Rate 50 g/ha): 8; Plant response rating, Morningglory (morningglory; POSTEMERGENCE, Rate 200 g/ha): 10; Plant response rating, Morningglory (morningglory; PREEMERGENCE, Rate 50 g/ha): 1; Plant response rating, Morningglory (morningglory; Rate 200 g/ha, PREEMERGENCE): 5; Plant response rating, Velvetleaf (velvetleaf; POSTEMERGENCE, Rate 50 g/ha): 8; Plant response rating, Velvetleaf (velvetleaf; POSTEMERGENCE, Rate 200 g/ha): 10; Plant response rating, Velvetleaf (velvetleaf; PREEMERGENCE, Rate 50 g/ha): 1; Plant response rating, Velvetleaf (velvetleaf; Rate 200 g/ha, PREEMERGENCE): 10; Plant response rating, Sorghum (sorghum; POSTEMERGENCE, Rate 50 g/ha): 4; Plant response rating, Sorghum (sorghum; POSTEMERGENCE, Rate 200 g/ha): 5; Plant response rating, Sorghum (sorghum; PREEMERGENCE, Rate 50 g/ha): 0; Plant response rating, Sorghum (sorghum; Rate 200 g/ha, PREEMERGENCE): 2; Plant response rating, Chickweed (chickweed; PREEMERGENCE, Rate 50 g/ha): 0; Plant response rating, Chickweed (chickweed; Rate 200 g/ha, PREEMERGENCE): 9; Plant response rating, Wild buckwheat (wild buckwheat; POSTEMERGENCE, Rate 50 g/ha): 10; Plant response rating, Wild buckwheat (wild buckwheat; POSTEMERGENCE, Rate 200 g/ha): 10; Plant response rating, Wild buckwheat (wild buckwheat; PREEMERGENCE, Rate 50 g/ha): 8; Plant response rating, Wild buckwheat (wild buckwheat; Rate 200 g/ha, PREEMERGENCE): 10
